Laboratory results reported in patent publication US10138222B2, “Substituted benzamides as RIPK2 inhibitors” (Boehringer Ingelheim International GmbH, priority 2016, dated 2018).

Molecular target: RIPK2 (Homo sapiens (Human), UniProt O43353)
Test: RIPK2 inhibition, ADP-Glo Kinase Assay
Assay type: biochemical
Details: 8His-RIPK2 FL enzyme 8 nM, ATP 5 μM, 15 minutes pre-incubation, 60 minutes at 37° C., luminescence
Experimental: RIPK2 inhibition for compounds in Table 1 are shown in Table 3 and measured using the following method:
Materials: White, 384-well optiplates (cat.no. 6007290) were purchased from PerkinElmer. The V9103X ADP-Glo Kinase Assay Custom (including ultra-pure ATP) was purchased from Promega. 8His-RIPK2 FL was prepared in-house. All other materials were of highest grade commercially available.
Method: In a 384-well plate, test compound diluted in assay buffer (1% DMSO final) is mixed with 8His-RIPK2 FL enzyme (final concentration of 8 nM). After 15 minutes of pre-incubation at RT, ATP dissolved in assay buffer is added (final concentration 5 μM). The mixture is incubated for 60 minutes at 37° C. in a humidified incubator. Then, ADP Glo Reagent is added, followed by a 40 minute incubation at rt. Finally, Kinase Detection Reagent is added and the entire mixture is incubated for 40 min at RT. The luminescence signal is measured with an Envision reader to determine the amount of ADP produced. Assay buffer: 25 mM HEPES (4-(2-hydroxyethyl)-1-piperazinethanesulfonic acid), 0.1% BSA (bovine serum albumin), 10 mM MgCl2, 5 mM MnCl2, 50 mM KCl, 0.01% CHAPS (3-[(3-cholamidopropyl)dimethylammonio]-1-propanesulfonate), 10 μM Na3VO4, 1 mM DTT (dithiothreitol), pH 7.5 All plates contain wells with vehicle controls instead of compound (1% DMSO) as reference for the high signal (100% CTL (100% of control), high signal), and wells without enzyme as reference for low signal (0% CTL, low signal). The luminescent signal generated is proportional to the ADP produced and is correlated with enzyme activity. The analysis of the data is performed by the calculation of the percentage of ADP production in the presence of the test compound and RIPK2 as compared to the ADP production in the presence of RIPK2 plus 50 μM Gefitinib. (RLU (relative luminescence units) (sample)−RLU(low control))*100/(RLU(high value)−RLU(low control)) [RLU=relative luminescence units].

RIPK2, sequence (O43353 whole entry): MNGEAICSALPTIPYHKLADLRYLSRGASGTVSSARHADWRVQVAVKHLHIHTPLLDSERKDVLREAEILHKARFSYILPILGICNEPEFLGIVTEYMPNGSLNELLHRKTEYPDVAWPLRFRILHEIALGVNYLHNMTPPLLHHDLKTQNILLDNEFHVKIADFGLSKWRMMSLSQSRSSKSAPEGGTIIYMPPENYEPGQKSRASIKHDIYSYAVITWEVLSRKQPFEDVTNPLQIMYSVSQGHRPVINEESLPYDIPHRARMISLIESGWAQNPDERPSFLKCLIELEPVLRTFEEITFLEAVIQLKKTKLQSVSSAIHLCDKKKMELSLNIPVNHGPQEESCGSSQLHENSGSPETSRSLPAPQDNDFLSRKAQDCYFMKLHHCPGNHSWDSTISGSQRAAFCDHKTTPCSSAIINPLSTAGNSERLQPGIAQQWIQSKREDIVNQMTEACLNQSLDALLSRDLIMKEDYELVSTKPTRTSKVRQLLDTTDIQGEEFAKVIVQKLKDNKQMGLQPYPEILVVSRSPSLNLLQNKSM

| Structure (SMILES) | IC50 [nM] |
| --- | --- |
| Cc1ccc(C(=O)NC2CC2)cc1-c1cnn(-c2cncc(NC(C)C3CCOC3)c2)c1 (centres unmarked) [Example 67, N-cyclopropyl-4-methyl-3-[1-(5-{[1-(oxolan-3-yl)ethyl]amino}pyridin-3-yl)-1H-pyrazol-4-yl]benzamide] | 1.6 |
| Cc1cc(F)c(C(=O)NC2CC2)cc1-c1cnn(-c2cncc(NC3CCN(C4COC4)CC3)c2)c1 [Example 68, N-cyclopropyl-2-fluoro-4-methyl-5-[1-(5-{[1-(oxetan-3-yl)piperidin-4-yl]amino}pyridin-3-yl)-1H-pyrazol-4-yl]benzamide] | 1.1 |
| Cc1ccc(C(=O)NC2CC2)cc1-c1cn(-c2cncc(C3CC3)c2)cn1 [Example 71, N-cyclopropyl-3-[1-(5-cyclopropyl-pyridin-3-yl)-1H-imidazol-4-yl]-4-methylbenzamide] | 2.7 |
| Cc1ccc(C(=O)NC2CC2)cc1-c1cn(-c2cncc(N(C)C)c2)cn1 [Example 72, N-cyclopropyl-3-{1-[5-(dimethyl-amino)pyridin-3-yl]-1H-imidazol-4-yl}-4-methylbenzamide] | 3.9 |
| Cc1ccc(C(=O)NC2CC2)cc1-c1cnn(-c2cncc(NC3CCN(C(=O)OC(C)(C)C)CC3)c2)c1 [Example 73, tert-butyl 4-[(5-{4-[5-(cyclopropylcarbamoyl)-2-methyl-phenyl]-1H-pyrazol-1-yl}pyridin-3-yl)amino]piperidine-1-carboxylate] | 15 |
| COCCN1CCC(Nc2cncc(-n3cc(-c4cc(C(=O)NC5CC5)c(F)cc4C)cn3)c2)CC1 [Example 74, N-cyclopropyl-2-fluoro-5-[1-(5-{[1-(2-methoxyethyl)piperidin-4-yl]amino}pyridin-3-yl)-1H-pyrazol-4-yl]-4-methylbenzamide] | 1 |
| Cc1cc(F)c(C(=O)NC2CC2)cc1-c1cnn(-c2cncc(NC3CC4CCC(C3)N4C3COC3)c2)c1 (centres unmarked) [Example 75, N-cyclopropyl-2-fluoro-4-methyl-5-[1-(5-{[8-(oxetan-3-yl)-8-azabicyclo[3.2.1]octan-3-yl]amino}pyridin-3-yl)-1H-pyrazol-4-yl]benzamide] | 0.9 |
| Cc1ccc(C(=O)NC2CC2)cc1-c1cnn(-c2cncc(NC3CCN(C)CC3)c2)c1 [Example 76, N-cyclopropyl-4-methyl-3-(1-{5-[(1-methylpiperidin-4-yl)amino]pyridin-3-yl}-1H-pyrazol-4-yl)benzamide] | 0.61 |
| Cc1cc(F)c(C(=O)NC2CC2)cc1-c1cnn(-c2cncc(NC3CCN(C)CC3)c2)c1 [Example 77, N-cyclopropyl-2-fluoro-4-methyl-5-(1-{5-[(1-methylpiperidin-4-yl)amino]pyridin-3-yl}-1H-pyrazol-4-yl) benzamide] | 1.1 |
| Cc1ccc(C(=O)NC2CC2)cc1-c1cnn(-c2cncc(NC3CCOCC3)c2)c1 [Example 78, N-cyclopropyl-4-methyl-3-(1-{5-[(oxan-4-yl)amino]pyridin-3-yl}-1H-pyrazol-4-yl)benzamide] | 1.3 |
| Cc1ccc(C(=O)NC2CC2)cc1-c1cn(-c2cncc(NC3CCN(C4COC4)CC3)c2)cn1 [Example 79, N-cyclopropyl-4-methyl-3-[1-(5-{[1-(oxetan-3-yl)piperidin-4-yl]amino}pyridin-3-yl)-1H-imidazol-4-yl] benzamide] | 1.4 |
| Cc1ccc(C(=O)NC2CC2)cc1-c1cnn(-c2cncc(OCc3ccccc3)c2)c1 [Example 80, 3-{1-[5-(benzyloxy)pyridin-3-yl]-1H-pyrazol-4-yl}-N-cyclopropyl-4-methylbenzamide] | 26 |
| Cc1ccc(C(=O)NC2CC2)cc1-c1cnn(-c2cncc(OC(C)C)c2)c1 [Example 81, N-cyclopropyl-4-methyl-3-{1-[5-(propan-2-yloxy)pyridin-3-yl]-1H-pyrazol-4-yl}benzamide] | 5.4 |
| Cc1ccc(C(=O)NC2CC2)cc1-c1cnn(-c2cncc(NC3CCNCC3)c2)c1 [Example 92, N-cyclopropyl-4-methyl-3-(1-{5-[(piperidin-4-yl)amino]pyridin-3-yl}-1H-pyrazol-4-yl)benzamide] | 1.5 |
| Cc1ccc(C(=O)NC2CC2)cc1-c1cnn(-c2cncc(NC3CCN(C4CCC4)CC3)c2)c1 [Example 93, 3-(1-{5-[(1-cyclobutylpiperidin-4-yl)amino]pyridin-3-yl}-1H-pyrazol-4-yl)-N-cyclopropyl-4-methyl-benzamide] | 1.5 |
| Cc1ccc(C(=O)NC2CC2)cc1-c1cnn(-c2cncc(NC3CCN(C4COC4)CC3)c2)c1 [Example 94, N-cyclopropyl-4-methyl-3-[1-(5-{[1-(oxetan-3-yl)piperidin-4-yl]amino}pyridin-3-yl)-1H-pyrazol-4-yl] benzamide] | 0.81 |

| Structure (SMILES) | IC50 [nM] |
| --- | --- |
| Cc1ccc(C(=O)NC2CC2)cc1-c1cnn(-c2cncc(O)c2)c1 [Example 95, N-cyclopropyl-3-[1-(5-hydroxypyridin-3-yl)-1H-pyrazol-4-yl]-4-methyl-benzamide] | 6.1 |
| Cc1ccc(C(=O)NC2CC2)cc1-c1cnn(-c2cncc(OC3CCOCC3)c2)c1 [Example 96, N-cyclopropyl-4-methyl-3-{1-[5-(oxan-4-yloxy)pyridin-3-yl]-1H-pyrazol-4-yl}benzamide] | 5.4 |
| Cc1ccc(C(=O)NC2CC2)cc1-c1cnn(-c2cncc(NC3CCCCC3)c2)c1 [Example 97, 3-{1-[5-(cyclohexylamino)pyridin-3-yl]-1H-pyrazol-4-yl}-N-cyclo-propyl-4-methylbenzamide] | 3.3 |
| Cc1ccc(C(=O)NC2CC2)cc1-c1cnn(-c2cncc(N3CCOCC3)c2)c1 [Example 98, N-cyclopropyl-4-methyl-3-{1-[5-(morpholin-4-yl)pyridin-3-yl]-1H-pyrazol-4-yl}benzamide] | 10 |
| Cc1ccc(C(=O)NC2CC2)cc1-c1cnn(-c2cncc(NCC3CC3)c2)c1 [Example 99, N-cyclopropyl-3-(1-{5-[(cyclopropylmethyl)amino]pyridin-3-yl}-1H-pyrazol-4-yl)-4-methyl-benzamide] | 2.6 |
| Cc1ccc(C(=O)NC2CC2)cc1-c1cnn(-c2cncc(N3CCN(C)CC3)c2)c1 [Example 100, N-cyclopropyl-4-methyl-3-{1-[5-(4-methylpiperazin-1-yl)pyridin-3-yl]-1H-pyrazol-4-yl}benzamide] | 29 |
| Cc1ccc(C(=O)NC2CC2)cc1-c1cnn(-c2cncc(C3(C(N)=O)CC3)c2)c1 [Example 101, 3-{1-[5-(1-carbamoylcyclopropyl)pyridin-3-yl]-1H-pyrazol-4-yl}-N-cyclopropyl-4-methylbenzamide] | 370 |
| O=C(NC1CC1)c1cc(-c2cnn(-c3cncc(C4CC4)c3)c2)c(Cl)cc1F [Example 104, 4-chloro-N-cyclopropyl-5-[1-(5-cyclopropylpyridin-3-yl)-1H-pyrazol-4-yl]-2-fluorobenzamide] | 1.9 |
| Cc1cc(F)c(C(=O)NC2CC2)cc1-c1cnn(-c2cncc(C3CC3)c2)c1 [Example 105, N-cyclopropyl-5-[1-(5-cyclopropyl-pyridin-3-yl)-1H-pyrazol-4-yl]-2-fluoro-4-methylbenzamide] | 1 |
| Cc1ccc(C(=O)NC2CC2)cc1-c1cnn(-c2cncc(N)c2)c1 [Example 106, 3-[1-(5-aminopyridin-3-yl)-1H-pyrazol-4-yl]-N-cyclopropyl-4-methylbenzamide] | 7 |
| CNC(=O)Nc1cncc(-n2cc(-c3cc(C(=O)NC4CC4)ccc3C)cn2)c1 [Example 107, N-cyclopropyl-4-methyl-3-(1-{5-[(methylcarbamoyl)amino]pyridin-3-yl}-1H-pyrazol-4-yl)benzamide] | 3.3 |
| Cc1ccc(C(=O)NC2CC2)cc1-c1cnn(-c2cncc(NC(=O)NC3CC3)c2)c1 [Example 108, N-cyclopropyl-3-(1-{5-[(cyclopropylcarbamoyl)amino]pyridin-3-yl}-1H-pyrazol-4-yl)-4-methylbenzamide] | 4.4 |
| Cc1ccc(C(=O)NC2CC2)cc1-c1cnn(-c2cncc(NC(=O)NC3CCC3)c2)c1 [Example 109, 3-(1-{5-[(cyclobutylcarbamoyl)amino]pyridin-3-yl}-1H-pyrazol-4-yl)-N-cyclopropyl-4-methylbenzamide] | 3.6 |
| Cc1ccc(C(=O)NC2CC2)cc1-c1cnn(-c2cncc(NC(=O)NC(C)C)c2)c1 [Example 110, N-cyclopropyl-4-methyl-3-[1-(5-{[(propan-2-yl)carbamoyl]amino}pyridin-3-yl)-1H-pyrazol-4-yl] benzamide] | 3.4 |
| CC(=O)Nc1cncc(-n2cc(-c3cc(C(=O)NC4CC4)ccc3C)cn2)c1 [Example 111, N-cyclopropyl-3-[1-(5-acetamido-pyridin-3-yl)-1H-pyrazol-4-yl]-4-methylbenzamide] | 5.3 |
| COCC(=O)Nc1cncc(-n2cc(-c3cc(C(=O)NC4CC4)ccc3C)cn2)c1 [Example 112, N-cyclopropyl-3-{1-[5-(2-methoxyacetamido)pyridin-3-yl]-1H-pyrazol-4-yl}-4-methylbenzamide] | 7.8 |
